Measurements from ChEMBL document CHEMBL1649201, “VanB-type Enterococcus faecium clinical isolate successively inducibly resistant to, dependent on, and constitutively resistant to vancomycin” (2009).
Values after ≈ are worked out from the molar mass of the structure shown.

Legend:
[1] = biological target: T1, D,D-carboxypeptidase (Enterococcus faecium) (UniProt Q7BI95); experiment: Activity of D,D-carboxypeptidase in vancomycin-resistant and teicoplanin-sensitive VanB-type Enterococcus faecium BM4659 cytoplasmic fraction assessed as enzyme mediated D-Alanine release per mg protein at 8 ug/ml
T1 sequence (whole entry): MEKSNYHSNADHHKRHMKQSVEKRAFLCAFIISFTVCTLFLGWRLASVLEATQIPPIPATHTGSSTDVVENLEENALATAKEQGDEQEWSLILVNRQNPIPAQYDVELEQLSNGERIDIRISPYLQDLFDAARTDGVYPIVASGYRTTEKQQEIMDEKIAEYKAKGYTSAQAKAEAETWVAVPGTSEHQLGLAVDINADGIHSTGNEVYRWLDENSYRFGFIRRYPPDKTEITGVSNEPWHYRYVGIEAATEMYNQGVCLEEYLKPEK

[2] = biological target: T1, D,D-carboxypeptidase (Enterococcus faecium); experiment: Activity of D,D-carboxypeptidase in vancomycin-dependent VanB-type Enterococcus faecium BM4660 cytoplasmic fraction assessed as enzyme mediated D-Alanine release per mg protein at 8 ug/ml
[3] = biological target: T2, D,D-dipeptidase (Enterococcus faecium) (UniProt Q9EYV8); experiment: Activity of D,D-dipeptidase in vancomycin-resistant and teicoplanin-sensitive VanB-type Enterococcus faecium BM4659 assessed as enzyme mediated D-Alanine release per mg protein at 8 ug/ml
T2 sequence (whole entry): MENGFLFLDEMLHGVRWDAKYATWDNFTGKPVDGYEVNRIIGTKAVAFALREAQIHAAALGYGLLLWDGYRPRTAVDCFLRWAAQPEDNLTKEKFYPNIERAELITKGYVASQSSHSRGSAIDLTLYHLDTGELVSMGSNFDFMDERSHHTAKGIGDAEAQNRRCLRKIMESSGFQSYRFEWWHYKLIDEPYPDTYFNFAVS

[4] = biological target: T2, D,D-dipeptidase (Enterococcus faecium); experiment: Activity of D,D-dipeptidase in vancomycin-revertant and teicoplanin-sensitive VanB-type Enterococcus faecium BM4661 assessed as enzyme mediated D-Alanine release per mg protein at 8 ug/ml
[5] = biological target: T2, D,D-dipeptidase (Enterococcus faecium); experiment: Activity of D,D-dipeptidase in vancomycin-dependent VanB-type Enterococcus faecium BM4660 assessed as enzyme mediated D-Alanine release per mg protein at 8 ug/ml
[6] = biological target: T1, D,D-carboxypeptidase (Enterococcus faecium); experiment: Activity of D,D-carboxypeptidase in vancomycin-revertant and teicoplanin-sensitive VanB-type Enterococcus faecium BM4661 membrane fraction assessed as enzyme mediated D-Alanine release per mg protein at 8 ug/ml
Enterococcus faecium [7] = experiment: Antimicrobial activity against vancomycin-dependent VanB-type Enterococcus faecium BM4660; format: functional
[8] = biological target: T1, D,D-carboxypeptidase (Enterococcus faecium); experiment: Activity of D,D-carboxypeptidase in vancomycin-dependent VanB-type Enterococcus faecium BM4660 membrane fraction assessed as enzyme mediated D-Alanine release per mg protein at 8 ug/ml
[9] = biological target: T1, D,D-carboxypeptidase (Enterococcus faecium); experiment: Activity of D,D-carboxypeptidase in vancomycin-revertant and teicoplanin-sensitive VanB-type Enterococcus faecium BM4661 cytoplasmic fraction assessed as enzyme mediated D-Alanine release per mg protein at 8 ug/ml
[10] = biological target: T1, D,D-carboxypeptidase (Enterococcus faecium); experiment: Activity of D,D-carboxypeptidase in vancomycin-resistant and teicoplanin-sensitive VanB-type Enterococcus faecium BM4659 membrane fraction assessed as enzyme mediated D-Alanine release per mg protein at 8 ug/ml
Enterococcus faecium [11] = experiment: Antimicrobial activity against vancomycin-revertant and teicoplanin-sensitive VanB-type Enterococcus faecium BM4661; format: functional
Enterococcus faecium [12] = experiment: Antimicrobial activity against vancomycin-resistant and teicoplanin-sensitive VanB-type Enterococcus faecium BM4659; format: functional

CN[C@H](CC(C)C)C(=O)N[C@H]1C(=O)N[C@@H](CC(N)=O)C(=O)N[C@H]2C(=O)N[C@H]3C(=O)N[C@H](C(=O)N[C@H](C(=O)O)c4cc(O)cc(O)c4-c4cc3ccc4O)[C@H](O)c3ccc(c(Cl)c3)Oc3cc2cc(c3O[C@@H]2O[C@H](CO)[C@@H](O)[C@H](O)[C@H]2O[C@H]2C[C@](C)(N)[C@H](O)[C@H](C)O2)Oc2ccc(cc2Cl)[C@H]1O [VANCOMYCIN]
Activity [1]: 13 nmol/min/mg | Activity [2]: 5.3 nmol/min/mg | Activity [3]: 255 nmol/min/mg | Activity [4]: 128 nmol/min/mg | Activity [5]: 99 nmol/min/mg | Activity [6]: 27 nmol/min/mg | MIC (Enterococcus faecium [7]): 256 µg/mL (≈ 177 µM) | Activity [8]: 30 nmol/min/mg | Activity [9]: 4.3 nmol/min/mg | Activity [10]: 115 nmol/min/mg | MIC (Enterococcus faecium [11]): 256 µg/mL (≈ 177 µM) | MIC (Enterococcus faecium [12]): 64 µg/mL (≈ 44.2 µM)
